Data taken from patent US20240034753A1, “THERAPEUTIC PEPTIDES” (COHBAR, INC., priority 2020, published 2024).
Square brackets hold non-standard residues; d marks the D form. Ends that are not written are not given here. Peptide text beside a SMILES is read from it. Nle = CCCC[C@H](N)C(=O)O

How the values were obtained:
3T3-L1 Mouse Adipocytes = experiment: Free fatty acid levels in cultured mouse adipocytes stimulated with isoproterenol; format: cell-based; details: peptide 10 μM, 20-22 hours then 3 hours with 1 nM isoproterenol; relative to isoproterenol treated cells
Experimental: The effect of the peptides on fatty acid metabolism can be assessed using an assay of free fatty acid levels in cultured cells such as mouse adipocytes. Peptides were initially prepared as 10 mM stock in DMSO and used at a final concentration of 10 μM (0.1% DMSO). […] Mouse 3T3-L1 cells purchased from ZenBio were seeded at 3,000 cells per well in 96-well plates in Pre-adipocyte Medium (Zen-Bio) and grown to confluence at 37° C. in a humidified atmosphere of 5% CO2/95% air. Two days after confluence, cells were placed in Adipocyte Differentiation Medium (Zen-Bio) and cultured for three additional days at 37° C. in a humidified atmosphere of 5% CO2/95% air. The culture media was then replaced with Adipocyte Maintenance Medium (Zen-Bio) and the cells maintained for an additional 9-12 days at 37° C. in a humidified atmosphere of 5% CO2/95% air with partial medium replacement every other day. Following 12-15 days of differentiation, test peptides were added at a final concentration of 10 μM in 0.1% DMSO and incubated for 20-22 hours in Adipocyte Maintenance Medium at 37° C. in a humidified atmosphere of 5% CO2/95% air. After 20-22 hours, 1 nM isoproterenol was added to all wells except untreated controls and test peptides were replenished. Insulin at 100 nM was added to control wells. Cells were incubated for 3 hours in Assay Buffer (Zen-Bio) at 37° C. in a humidified atmosphere of 5% CO2/95% air. Free fatty acid concentrations in the media were determined using a Free Fatty Acid Assay kit (Zen-Bio) according to the manufacturer's instructions using a Cytation 3 plate reader at 540 nm (BioTek, Winooski, VT). Absorbance values were corrected for untreated background and expressed relative to isoproterenol treated cells. Treatment with isoproterenol (1 nM) alone was used as the free fatty acid level stimulatory control. The relative standard deviation of the isoproterenol control was <10%. […] Free fatty acid levels for insulin (100 nM) treatment were <5% of the isoproterenol control value.

[1] = test system: A172 human brain glioblastoma cell line; experiment: Caspase-Glo 3/7 assay of caspase 3/7 activity in cultured cells; format: cell-based; details: peptide 10 μM, 18-20 hours, relative to 0.1% DMSO control
Experimental: The effect of the peptides on cell death/survival can be assessed using a […] assay in cultured cells. Peptides were dissolved at 10 mM in DMSO as stock solutions for use at a final concentration of 10 μM. […] Caspase-Glo 3/7 Assay Reagent was purchased from Promega (Madison, WI). A172 human brain glioblastoma cell line was purchased from American Type Culture Collection (Manassas, VA). A172 cells were grown in DMEM supplemented with 10% FBS with 100 IU/ml penicillin and 100 μg/ml streptomycin. Cultures were maintained at 37° C. in a humidified atmosphere of 5% CO2/95% air. A172 cells were seeded at 8,000 cells per well on 96-well plates. […] Caspase 3/7 activity was determined using a Caspase-Glo 3/7 Assay kit (Promega) according to the manufacturer's instructions. Luminescence for each sample well on the plate was measured using a Cytation 3 plate reader (BioTek, Winooski, VT). Activity was calculated relative to 0.1% DMSO control.

[2] = test system: SH-SY5Y Neuroblastoma Cells; experiment: ATP levels (CellTiter-Glo); format: cell-based, human; details: peptide 10 μM, 18-20 hours, relative to 0.1% DMSO treated control
Experimental: The effect of the peptides on cellular metabolism can be assessed using an assay of ATP levels in cultured cells such as human neuroblastoma cells. Peptides were initially prepared as 10 mM stock in DMSO and used at a final concentration of 10 μM (0.1% DMSO). […] CellTiter-Glo® Assay kit was purchased from Promega. SH-SY5Y human bone marrow neuroblastoma cell line was purchased from American Type Culture Collection (Manassas, VA) and licensed from Memorial Sloan-Kettering Cancer Center (New York, NY). SH-SY5Y cells were grown in DMEM/F12 medium supplemented with 10% FBS with 100 IU/ml penicillin and 100 μg/ml streptomycin. Cultures were maintained at 37° C. in a humidified atmosphere of 5% CO2/95% air. SH-SY5Y cells were seeded at 30,000 cells per well on 96-well plates. […] ATP levels were determined using a CellTiter-Glo Assay kit (Promega) according to the manufacturer's instructions. Luminescence for each sample well on the plate was measured using a Cytation 3 plate reader (BioTek, Winooski, VT). Activity was calculated relative to 0.1% DMSO treated control. The relative standard deviation of the result for the 0.1% DMSO treated control was <5%.

[3] = test system: SH-SY5Y Neuroblastoma Cells Exposed to Staurosporine; experiment: ATP levels in cells exposed to staurosporine (CellTiter-Glo); format: cell-based, human; details: peptide 10 μM plus staurosporine (40 μM), 18-20 hours; <100% cytoprotective, >100% synergistic
Experimental: Peptides were initially prepared as 10 mM stock in DMSO and tested at a final concentration of 10 μM (0.1% DMSO). […] […] CellTiter-Glo® Assay kit was purchased from Promega. SH-SY5Y human neuroblastoma cell line was purchased from American Type Culture Collection (Manassas, VA) and licensed from Memorial Sloan-Kettering Cancer Center (New York, NY). SH-SY5Y cells were grown in DMEM/F12 medium supplemented with 10% FBS with 100 IU/ml penicillin and 100 μg/ml streptomycin. Cultures were maintained at 37° C. in a humidified atmosphere of 5% CO2/95% air. SH-SY5Y cells were seeded at 30,000 cells per well on 96-well plates. […] ATP levels were determined using a CellTiter-Glo Assay kit (Promega) according to the manufacturer's instructions. Luminescence for each sample well on the plate was measured using a Cytation 3 plate reader (BioTek, Winooski, VT). […] A value less than 100% is indicative of a cytoprotective effect, while a value greater than 100% is indicative of a synergistic effect on viability.

Row | Compound | Free Fatty Acid Levels, MEAN %ISO (3T3-L1 Mouse Adipocytes) [%] | Caspase 3/7 Activity, Percent of Control Activity [1] [%] | ATP Levels, % Control [2] [%] | Percent of ATP Reduction Induced by Control [3] [%]
1 | MLLILTLVLL [compound 2] | 80.7 | 86.6 | 99.9 | 91.6
2 | RRRMFSCYLY [compound 18] | 58.5 | 95.7 | 108.6 | 96.1
3 | MMAGVIRGVLVL [compound 7] | 66.4 | 84.6 | 103.9 | 103.3
4 | MRQWILHNGGMSFFC [compound 12] | 67.1 | 109.7 | 101.0 | 98.0
5 | CC[C@H](C)[C@H](NC(=O)[C@H](Cc1c[nH]c2ccccc12)NC(=O)[C@H](CCC(N)=O)NC(=O)[C@@H](N)CCCNC(=N)N)C(=O)N[C@@H](CC(C)C)C(=O)N[C@@H](Cc1c[nH]cn1)C(=O)N[C@@H](CC(N)=O)C(=O)N[C@H](C)C(=O)NCC(=O)N[C@@H](CCSC)C(=O)N[C@@H](CO)C(=O)N[C@@H](Cc1ccccc1)C(=O)N[C@@H](Cc1ccccc1)C(=O)N[C@@H](CS)C(=O)O [compound 14] (H-RQWILHN[dA]GMSFFC-OH; N-terminus and C-terminus assumed) | 70.4 | 107.4 | 98.4 | 93.6
6 | MRRRMFSCYLY [compound 17] | 46.1 | 91.3 | 104.6 | 94.2
7 | GWVLLYDRHVIGGSLCVVVQVEAY [compound 22] | 84.7 | 105.0 | 103.5 | 73.1
8 | CSCC[C@H](NC(=O)CNC(=O)[C@@H](C)NC(=O)[C@H](CC(N)=O)NC(=O)[C@H](Cc1c[nH]cn1)NC(=O)[C@H](CC(C)C)NC(=O)[C@H](CCC(=O)O)NC(=O)[C@H](Cc1c[nH]c2ccccc12)NC(=O)[C@H](CCC(N)=O)NC(=O)[C@@H](N)CCCNC(=N)N)C(=O)N[C@@H](CO)C(=O)N[C@@H](C)C(=O)N[C@@H](Cc1ccccc1)C(=O)N[C@@H](CS)C(=O)O [compound 15] (H-RQWELHN[dA]GMSAFC-OH; N-terminus and C-terminus assumed) | 54.5 | 114.6 | 101.8 | 88.4
9 | CC[C@H](C)[C@H](NC(=O)[C@@H](NC(=O)[C@H](Cc1c[nH]cn1)NC(=O)[C@H](CCCNC(=N)N)NC(=O)[C@H](CC(=O)O)NC(=O)[C@H](Cc1ccc(O)cc1)NC(=O)[C@H](CC(C)C)NC(=O)[C@H](CC(C)C)NC(=O)[C@@H](NC(=O)[C@@H](N)Cc1c[nH]c2ccccc12)C(C)C)C(C)C)C(=O)NCC(=O)NCC(=O)N[C@@H](CO)C(=O)N[C@@H](CC(C)C)C(=O)N[C@@H](CS)C(=O)N[C@H](C(=O)N[C@H](C(=O)N[C@H](C(=O)N[C@@H](CCC(N)=O)C(=O)N[C@H](C(=O)N[C@@H](CCC(=O)O)C(=O)N[C@H](C)C(=O)O)C(C)C)C(C)C)C(C)C)C(C)C [compound 24] (H-WVLLYDRHVIGGSLCVVVQVE[dA]-OH; N-terminus and C-terminus assumed) | 93.7 | 108.8 | 98.3 | 80.4
10 | CCCC[C@H](NC(=O)[C@H](CCCNC(=N)N)NC(=O)[C@H](CCCNC(=N)N)NC(=O)[C@@H](N)CCCNC(=N)N)C(=O)N[C@@H](Cc1ccccc1)C(=O)N[C@@H](CO)C(=O)N[C@@H](CS)C(=O)N[C@@H](Cc1ccc(O)cc1)C(=O)N[C@H](C)C(=O)N[C@@H](Cc1ccc(O)cc1)C(=O)O [compound 20] (H-RRR[Nle]FSCY[dA]Y-OH; N-terminus and C-terminus assumed) | 65.6 | 85.4 | 106.9 | 101.4
